In brackets after ≈: the same amount, converted by molar mass. Entries after “also recorded” stand apart in the source; their conditions may differ.
How the values were obtained:
[1] = Competitive slurry experiment of Forms A to H; format: physicochemical; settings: IPAc/Heptane or toluene, RT
Experimental: Approximately 2 to 3 mg of materials from Forms A to H were weighed into a 20.0 mL clear vial equipped with magnetic stir bars (Table 13). IPAc/Heptane (1:2 V/V) and toluene were used as the solvent systems for these competitive slurry experiments. Two selected solvents, 1.0 mL, were added to achieve free-flowing slurry and allowed to equilibrate at room temperature. All slurries will be isolated via centrifuge filtration after one day and seven days of equilibration.

[2] = Slurry of a single salt (seven days of stirring in water / acetone), XRPD; format: physicochemical
[3] = Competitive slurry of calcium, potassium and sodium salts in acetone; format: physicochemical; settings: acetone (50 μL water added for potassium and sodium salts), room temperature, one and seven days
Experimental: Calcium, sodium, and potassium salts were used to setup different competitive slurry experiments. For competitive slurry of calcium salts (˜5-6 mg of Salt I and Salt II) were weighed into a 5.0 mL clear vial equipped with magnetic stir bars. These steps were repeated for potassium salt material (˜5-6.5 mg of Salt III) and sodium salt materials (˜2.6-6.4 mg of Salt IV and Salt V). […] All slurries, 400 μL, were filtered through 0.45 micron centrifuge filters after one and seven days of equilibration. The solids were analyzed by XRPD to check for salt conversion (Table 36).

[4] = Dynamic vapour sorption (moisture sorption) with XRPD of post-DVS material; format: physicochemical; settings: for Moisture adsorbed at 60% RH / Moisture Sorption 90% RH / Moisture Sorption 60% RH / Weight moisture uptake at 60% RH / Weight moisture uptake at 90% RH: DVS; for Moisture adsorbed at 60% RH / Moisture Sorption 90% RH / Moisture Sorption 60% RH: 25.0 °C; for XRPD analysis of the post-DVS material: after DVS and drying at 60 °C for 2 hours; for Hygroscopicity (in words): from DVS moisture sorption
Experimental: Dynamic vapour sorption experiment was carried out by first holding the sample at 40% RH and 25.0° C. until an equilibrium weight was reached or for a maximum of four hours. The sample was then subjected to an isothermal (at 25.0° C.) adsorption scan from 40 to 90% RH in steps of 10%. The sample was allowed to equilibrate to an asymptotic weight at each point for a maximum of four hours. Following adsorption, a desorption scan from […] to 5% RH (at 25.0° C.) was run in steps of 10% again allowing a maximum of four hours for equilibration to an asymptotic weight. An adsorption scan was then performed from 0 to 40% RH in steps of 10%. The sample was then dried for no less than two hours at 60.0° C. and the resulting solid analyzed by XRPD.

[5] = Thermal stability experiments (solid stored at 60 °C; XRPD and HPLC); settings: for Physical form / XRPD pattern change after storage at 60 °C for seven days (in words) / Chemical stability / degradation by HPLC after storage at 60 °C for seven days (in words): solid; for HPLC (% AUC): after storage at 60.0 °C; for Parent Material HPLC (% AUC): before storage at 60.0 °C
[6] = Single form slurry experiments of Forms A, D and G; format: physicochemical; settings: for Outcome in the single form and competitive slurry experiments (in words): ambient temperature, all tested conditions
Experimental: Single form slurry experiments were conducted for Forms A, D and G in three solvents stems, water, 1:2 v/v IPAc/heptane, and toluene to evaluate their physical form stability as a single polymorph (Table 14). Form A remained unchanged at six day time point. […] Form D remained unchanged for three days in water but converted to a mixture A and D at six days. In 1:2 IPAc/heptane and toluene, Form D converted to a mixture of A and D at three days and then Form A at six days. […] Form D is also a metastable polymorph but its conversion to Form A is kinetically slower than Form G. The conversion was the slowest in water partly due to low solubility.
Approximately 10-20 mg of Forms A, D and G were weighed into 8 mL clear vials equipped with magnetic stir bars (Table 14). Water, IPAc/Heptane (1:2 V/V) and toluene were used as the solvent systems for these competitive slurry experiments. Three selected solvents, 1.0 mL, were added to achieve free-flowing slurry and allowed to equilibrate at room temperature. All slurries will be isolated via centrifuge filtration after three day and six days of equilibration.

[7] = Aqueous solubility (slurry in deionized water at room temperature, filtrate by HPLC, solids by XRPD); settings: deionized water, room temperature, equilibrated with stirring, filtrate by HPLC
Experimental: Approximately 14-25 mg of Forms A, D and G were transferred to 20 mL vials equipped with magnetic stir bars. 1.0 mL of deionized water was added and the resulting free flowing slurry was allowed to equilibrate over 1 and 7 days period with stirring at room temperature. […] The filtrates were analyzed by HPLC to determine solubility.

[8] = Competitive slurry experiment of Forms A, D and G; format: physicochemical; settings: mixture of Forms A, D and G slurried in Water, RT
Experimental: To evaluate relative stability of the anhydrate polymorphs, competitive slurry experiments of Forms A, D and G were conducted as described in below and summarized in Table 12. In all three solvent systems, water, 1:2 v/v IPAc/heptane, and toluene, Form A was the final polymorph after equilibration for 8 days.
Slurry experiments were performed using the following procedure: a mixture of Form A (˜12.0 mg, Compound 1), Form D (˜12.0 mg) and Form G (˜12.0 mg) were weighed into a 20.0 mL clear vial equipped with magnetic stir bars (Table 12). Water, IPAc/Heptane (1:2 V/V) and toluene were used as the solvent systems for these competitive slurry experiments. Three selected solvents, 1.0 mL, were added to achieve free-flowing slurry and allowed to equilibrate at room temperature.

[9] = Thermal holding (TGA thermal hold) experiments of salts, XRPD of resulting solid; format: physicochemical; settings: held at 150 °C

Compound | Moisture Sorption ([4]; 60% RH) | Moisture Sorption ([4]; 90% RH) | Moisture adsorbed at 60% RH ([4]; 60% RH) [wt %] | Moisture Sorption 90% RH ([4]; 90% RH) [wt %] | XRPD analysis of the post-DVS material [4] | Hygroscopicity (in words) [4] | Physical form / XRPD pattern change after storage at 60 °C for seven days (in words) [5] | Outcome in the single form and competitive slurry experiments (in words) [6] | Solubility (extrapolated values based on the standard curve 0.008-0.2 mg/mL) [7] [µg/mL] | XRPD, Day 1 [8] | Moisture Sorption 60% RH ([4]; 60% RH) [%] | Weight moisture uptake at 60% RH ([4]; 60% RH) | Weight moisture uptake at 90% RH ([4]; 90% RH) | HPLC (% AUC) [5] [% AUC] | Parent Material HPLC (% AUC) [5] [% AUC] | Chemical stability / degradation by HPLC after storage at 60 °C for seven days (in words) [5] | further results
O=C(O)CNC(=O)c1ncc(-c2cccc(F)c2)cc1O [Form B, 2-(5-(3-fluorophenyl)-3-hydroxypicolinamido)acetic acid] | – | – | – | – | – | – | – | – | – | – | – | – | – | – | – | – | Outcome in the competitive slurry experiment (in words) [1]: converted to Form A
O=C(O)CNC(=O)c1ncc(-c2cccc(F)c2)cc1O [Form A, 2-(5-(3-fluorophenyl)-3-hydroxypicolinamido)acetic acid] | – | – | 0 | 6.1 | consistent with the starting material | moderately hygroscopic | No chemical and physical form changes | most stable polymorph | 2.6 (≈ 8.96 µM) | A + D | 0 | about 0 % weight | about 6.1 % weight | >99.9 | >99.9 | No chemical and physical form changes; also recorded: chemically stable | Moisture Sorption 90% RH ([4]; 90% RH, listed as A): 6.1 wt %
O=C(O)CNC(=O)c1ncc(-c2cccc(F)c2)cc1O [Form D, 2-(5-(3-fluorophenyl)-3-hydroxypicolinamido)acetic acid] | – | – | 0.7 | 1.0 | consistent with the starting material | slightly hygroscopic | maintained its chemical and physical form | converted to Form A | 490 (≈ 1690 µM) | A + D | 0.7 | about 0.7 % weight | about 1.0 % weight | >99.9 | >99.9 | maintained its chemical and physical form; also recorded: chemically stable | XRPD, Day 3 ([6]; single form slurry, IPAc/Heptane (1:2 V/V), RT): A + D; XRPD, Day 3 ([6]; single form slurry, Toluene, RT): A + D; XRPD, Day 6 ([6]; single form slurry, Water, RT, day 6): A + D; Moisture Sorption 90% RH ([4]; 90% RH, listed as D): 1.0 wt %

Second part, led by results:

Moisture Sorption ([4]; 60% RH) | Moisture Sorption ([4]; 90% RH) | Moisture adsorbed at 60% RH ([4]; 60% RH) [wt %] | Moisture Sorption 90% RH ([4]; 90% RH) [wt %] | XRPD analysis of the post-DVS material [4] | Hygroscopicity (in words) [4] | Physical form / XRPD pattern change after storage at 60 °C for seven days (in words) [5] | Outcome in the single form and competitive slurry experiments (in words) [6] | Solubility (extrapolated values based on the standard curve 0.008-0.2 mg/mL) [7] [µg/mL] | XRPD, Day 1 [8] | Moisture Sorption 60% RH ([4]; 60% RH) [%] | Weight moisture uptake at 60% RH ([4]; 60% RH) | Weight moisture uptake at 90% RH ([4]; 90% RH) | HPLC (% AUC) [5] [% AUC] | Parent Material HPLC (% AUC) [5] [% AUC] | Compound | Chemical stability / degradation by HPLC after storage at 60 °C for seven days (in words) [5] | further results
60% RH: 1.0 wt % | 90% RH: 2.7 wt % | 1.0 | 2.7 | consistent with the starting material | moderately hydroscopic | no change in XRPD pattern | – | – | – | – | – | – | – | – | O=C([O-])CNC(=O)c1ncc(-c2cccc(F)c2)cc1O.[Na+] [Salt VIII] | no degradation | XRPD after seven days of stirring in acetone ([2]; acetone): no change in XRPD pattern; Outcome of competitive slurry of salts (in words) [3]: stable in an acetone slurry
60% RH: 0.3 wt % | 90% RH: 0.3 wt % | 0.3 | 0.3 | consistent with Salt IV of Compound 1 | moderately hydroscopic | no change in XRPD pattern | – | – | – | – | – | – | – | – | O=C([O-])CNC(=O)c1ncc(-c2cccc(F)c2)cc1O.[Na+] [Salt IX] | no degradation | XRPD of solid after thermal holding experiment at 150 °C [9]: consistent with the starting material; Form after seven days of stirring in water and acetone ([2]; water and acetone): converted to Salt VIII or Salt IV
